The results in this text go back to patent publication US7829332B2, “Purines are self-renewal signals for neural stem cells, and purine receptor antagonists promote neuronal and glial differentiation therefrom” (Cornell Research Foundation, Inc., priority 2004, dated 2010).

What all share (assay type): cell-based, mouse
The subject of one test is neural stem cells. Nature of the test: BrdU incorporation assay (mitotic index). Conditions: 4 hrs incubation. On the procedure: For the BrdU incorporation assay, the cultures were incubated for 4 hrs in BrdU (Sigma, 10 μg/ml, 4 hrs), fixed and stained with rat monoclonal anti-BrdU (MAS250C, Harlan Sera-lab, Loughborough, UK; 1:200) and Cy3-conjugated goat anti-rat antibodies (Jackson ImmunoResearch, 1:300). Nuclei were visualized by Sytox (Molecular Probes, Inc.), and the mitotic index was calculated as the ratio of BrdU/Sytox positive nuclei. Limiting dilution analysis was performed as previously described (Keyoung et al., Nature Biotechnology 19:843-850 (2001); Uchida et al., Proc. Natl. Acad. Sci. 97:14720-14725 (2000), which are hereby incorporated by reference in their entirety).
Purinergic signaling has long-term effects on proliferation of numerous cell types, including rapidly replicating transformed cell lines (Burnstock, G., Arterioscler Thromb Vasc Biol 22:364-73 (2002); Michoud et al., Am J Respir Cell Mol Biol 27:732-8 (2002); Sauer et al., J Cell Sci 115:3265-73 (2002); Tu et al., Br J Pharmacol 129:1481-9 (2000), which are hereby incorporated by reference in their entirety). To better define the mitogenic effects of P2Y on neural progenitor cells, the mitogenic effects of ATP, its analogs, and its dephosphorylated metabolites were compared. To this end, BrdU incorporation by neural stem cells was quantified after 4 hrs incubation in each treatment.
In general terms: Incorporation of labelled thymidine or its analogues reports DNA synthesis.

In the next test the test system is neural progenitor cells. Kind of test: Calcium imaging (fluo-4/am) of Ca2+i responses in 1-2 day cultures. The note with it: for increase of Ca2+i by purine receptor agonists: 1-2 day cultures; for effect of removal of extracellular Ca2+ on the Ca2+ response to the agonist: extracellular Ca2+ removed. On the procedure:
Neuronal cultures were prepared from E16 mice and maintained as earlier described (Nedergaard, M., Science 263:1768-1771 (1994), which is hereby incorporated by reference in its entirety). Cytosine arabinoside (20 μM) was added at 48 hr to eliminate proliferating cells. Neural progenitor cells were isolated from E13 mice as previously described (Morshead et al., Neuron 13:1071-82 (1994); Reynolds et al., Science 255:1707-10 (1992), which are hereby incorporated by reference in their entirety). The forebrains were collected in a Ca/Mg-free Hank's buffered saline solution (HBSS) and dissociated in 0.25% trypsin. The cells were resuspended at 4×10^6 cells/ml in DMEM/F12/N2 containing 10 ng/ml bFGF and 10 ng/ml EGF (Sigma, St. Louis, Mo.). The cells were plated at 4 ml/dish into 100 mm suspension culture plates and incubated at 37° C. in 5% CO2. The cells were passaged 2 to 3 times before use.
To test the idea that purinergic signaling is restricted to undifferentiated neural precursor cells, Ca^2+ responses to ATP were first examined as a function of time after plating either neural stem cells or differentiated neurons. Cultured mouse cortical neurons in near-pure neuronal cultures were loaded with fluo-4/am and exposed to either ATP (100 μM) or K^+ (60 mM). […] The responses to ATP fell by day 3 and were absent 9 days after plating. […] By 30 hours after plating, MAP2-defined neurons expressed substantially less P2Y receptor-immunoreactivity than did neighboring, MAP2^− cells (FIG. 1C). By 5 days, P2Y-immunoreactivity was restricted to GFAP^+ astrocytes.
ATP-induced Ca^2+i increments were inhibited by both suramin (100 μM) and reactive blue (RB; 30 μM), two mechanistically-unrelated inhibitors of purinergic signaling (FIG. 1D).

For test [1], the system named is neuroepithelial cells / neural spheres. Nature of the test: ATP release, luciferin-luciferase bioluminescence. As to the method:
ATP release from living cells were dynamically imaged by chemiluminescence as described in (Arcuino et al., Proc Natl Acad Sci USA 99:9840-5 (2002), which is hereby incorporated by reference in its entirety). Neural spheres were after a light spin resuspended in Ringer's solution and mounted in a temperature controlled Leiden chamber. Luciferase (0.132 mg/ml) and luciferin (0.332 mg/ml) was added to the Ringer solution. After obtaining a baseline recording of 5 minutes duration, the cultures were stimulated by adding an equal volume of Ca^2+-free Ringer solution containing 100 μM UTP. Light production from the luciferin-luciferase reaction was imaged by a liquid nitrogen-cooled CCD camera (VersArray 1300B, Princeton Instruments), using a 20× oil lens (N.A. 0.8, Olympus), 8×8 binning, and two seconds integration. ATP content in samples collected from cultures grown in 24-well tissue culture plates was measured using a Victor2 plate reader (Wallac) (Cotrina et al., Proc. Natl. Acad. Sci. 95:15735-15740 (1998), which is hereby incorporated by reference in its entirety) and normalized to the protein content (BioRad) or to the cell number. A minimum of 8 independent experiments was evaluated (n≧8, most >20). When drugs or serum were used, the standards were adjusted to containing an equivalent amount. […]

For the compound `CCNC(=O)[C@H]1O[C@@H](n2cnc3c(N)ncnc32)[C@H](O)[C@@H]1O` [NECA], the “proliferation (BrdU incorporation)” value with neural stem cells is reported as “failed to stimulate proliferation”.
Take `Nc1ncnc2c1ncn2[C@@H]1O[C@H](COP(=O)(O)OP(=O)(O)OP(O)(O)=S)[C@@H](O)[C@H]1O` [γSATP, γ-thio-adenosine triphosphate]: in the test with neural progenitor cells, the “increase of Ca2+i by purine receptor agonists” value (“increase of Ca2+i” below) was “increased Ca^2+i with roughly equal potency”. Besides, the “proliferation (BrdU incorporation)” value in the test with neural stem cells is “comparable effects”.
In the case of `Nc1ncnc2c1ncn2[C@@H]1O[C@H](COP(=O)(O)CP(=O)(O)O)[C@@H](O)[C@H]1O` [AMPCP, α,β-methyl adenosine diphosphate], in the test on neural stem cells, the “proliferation (BrdU incorporation)” value is reported as “potently enhanced”.
For `CSc1nc(N)c2ncn([C@@H]3O[C@H](COP(=O)(O)OP(=O)(O)OP(=O)(O)O)[C@@H](O)[C@H]3O)c2n1` [2-MeSATP, 2-methylthio-adenosine triphosphate], in the test on neural progenitor cells, the “increase of Ca2+i” value is reported as “increased Ca^2+i with roughly equal potency” and the “effect of removal of extracellular Ca2+ on the Ca2+ response to the agonist” value is recorded as “did not significantly decrease”.
For the compound `Nc1ncnc2c1ncn2[C@@H](C=O)O[C@@H](C=O)COP(=O)(O)OP(=O)(O)OP(=O)(O)O` [oxidized ATP, periodate oxidized adenosine 5′-triphosphate], in the test on neural progenitor cells (300 μM, 1 hr, p=0.4, Student's t test), the “reduction of ATP-evoked Ca2+ responses” value is “did not significantly reduce”.
On to apyrase, for which the “proliferation (BrdU incorporation)” value in the test with neural stem cells was “inhibited proliferation”.
On to `Nc1ncnc2c1ncn2[C@@H]1O[C@H](COP(=O)(O)OP(=O)(O)OP(=O)(O)O)[C@@H](O)[C@H]1O` [ATP, adenosine triphosphate], for which the “Ca2+ response” value in the test with neural progenitor cells (100 μM, cultures younger than 2 days in vitro) is on record as “Transient increments in Ca^2+ were triggered”. Besides, in the test with neural progenitor cells, the “increase of Ca2+i” value is given as “increased Ca^2+i with roughly equal potency” and the “effect of removal of extracellular Ca2+ on the Ca2+ response to the agonist” value was “did not significantly decrease”. In the test on neural stem cells, the “concentration at which proliferation peaked” value amounted to 100 µM and the “proliferation (BrdU incorporation)” value was “increased proliferation in a dose-dependent manner”.
With `Nc1nc(Cl)nc2c1ncn2[C@@H]1O[C@H](COP(=O)(O)OP(=O)(O)OP(=O)(O)O)[C@@H](O)[C@H]1O` [2-Cl-ATP, 2-chloro-adenosine triphosphate], the “increase of Ca2+i” value in the test with neural progenitor cells is recorded as “increased Ca^2+i with roughly equal potency”. For the same compound, the “proliferation (BrdU incorporation)” value in the test on neural stem cells was “comparable effects”.
Take `Nc1ncnc2c1ncn2[C@@H]1O[C@H](COP(=O)(O)CP(=O)(O)OP(=O)(O)O)[C@@H](O)[C@H]1O` [αβATP]: the “increase of Ca2+i” value with neural progenitor cells is “failed to evoke Ca^2+ responses”.
`O=c1ccn([C@@H]2O[C@H](COP(=O)(O)OP(=O)(O)OP(=O)(O)O)[C@@H](O)[C@H]2O)c(=O)[nH]1` [UTP, uridine triphosphate]: the “increase of Ca2+i” value with neural progenitor cells is on record as “increased Ca^2+i with roughly equal potency”. In the test with neural stem cells, the “proliferation (BrdU incorporation)” value is recorded as “comparable effects”. For the same compound, the “ATP release from neural spheres, bioluminescence imaging” value in test [1] (100 μM, neural spheres) is listed as “frequent point-source bursts of light emission”. The “ATP release evoked by purine receptor activation” value in test [1] (neuroepithelial cells, first 2 days in vitro) is listed as “evoked robust ATP release”.
Consider `Nc1ncnc2c1ncn2[C@@H]1O[C@H](CO)[C@@H](O)[C@H]1O` [adenosine], for which, in the test with neural stem cells, the “proliferation (BrdU incorporation)” value is given as “failed to stimulate proliferation”.
For `Nc1ncnc2c1ncn2[C@@H]1O[C@H](COP(=O)(O)OP(=O)(O)O)[C@@H](O)[C@H]1O` [ADP, adenosine diphosphate], the “increase of Ca2+i” value with neural progenitor cells was “increased Ca^2+i with roughly equal potency”. Further, the “proliferation (BrdU incorporation)” value in the test with neural stem cells is “comparable effects”.
